Laboratory results taken from patent US6413773B1, “Phosphatidylinositol 3-kinase inhibitors as stimulators of endocrine differentiation” (The Regents of the University of California, priority 1998, dated 2002).

Tests used:
PI3K [1] = experiment: PI3K assay on immunoprecipitates from treated fetal ICCs; type: cell-based, human; settings: for control PI3K activity eliminated, p85 immunoprecipitates: 100 nM wortmannin or 10 μM Ly294002, 5 d
Source text: (§1) The use of human fetal tissue for these studies was reviewed and approved by the Institutional Review Board at our university. Human fetal pancreases at 18-24 gestational wk were obtained with appropriate permissions and patient consent through nonprofit organ procurement programs (Advanced Bioscience Resources, Oakland, Calif.; Anatomic Gift Foundation, Laurel, Md.). Experiments were started by the enzymatic digestion with collagenase P (Boehringer Mannheim Corp., Indianapolis, Ind.) of the human fetal pancreases followed by tissue culture for 5 d, which led to the formation in vitro of ICCs, as previously described in detail (Otonkoski et al. (1993) J. Clin. Invest. 92:1459-1466).
PI3K inhibitors, NIC, or HGF/SF were added to the culture medium from the very beginning. Medium plus factor was changed every day for 5 d. For direct comparison, portions of the same pancreases were grown, treated with factors, and used for transcriptional analyses, insulin content and secretion, PI3K activities, and DNA synthesis.
(§2) Aliquots of cell lysates normalized for protein content were incubated for 3 h with antiPI3K antibodies directed against the 85kD regulatory subunit or with antiphosphotyrosine antibodies (Upstate Biotechnology, Inc., Lake Placid, N.Y.). The immune complexes were absorbed onto protein A-Sepharose and washed as described (Ptasznik et al. (1995) J. Biol. Chem. 270:19969-19973). PI3K assays were performed directly on beads. Briefly, the reaction was carried out for 10 min in a buffer containing 40 mM Hepes, pH 7.2, 6 mM MgCl2, 1 mM EDTA, […] (Avanti Polar Lipids, Alabaster, Ala.), […], and 10 mCi [γ^32P]ATP (6,000 Ci/mmol; DuPont/NEN, Wilmington, Del.). Adenosine (0.2 mM) was added to the reaction mixture to inhibit residual PI 4 kinase activity. After the incubation, the reaction was stopped with methanol plus 2.4 N HCl (1:1, vol/vol), and lipids were extracted, analyzed by thin-layer chromatography, and quantified as described previously (Ptasznik et al. (1995) J. Biol. Chem. 270:19969-19973). In some experiments, the direct binding of PI3K to p190Met after HGF/SF stimulation of islet cells was determined, as previously described in detail (Graziani, et al. (1991) J. Biol. Chem. 266:22087-22090).

[2] = tissue culture medium; cited from earlier work
[3] = test system: fetal pancreatic cells growing as islet-like cell clusters; experiment: Cytotoxicity and apoptosis in culture
[4] = test system: islet hormone gene expression in human fetal ICCs; settings: earlier publications; cited from earlier work
PIP3 = experiment: Determination of total cellular PIP3 in [32P]orthophosphate-labeled ICCs; type: cell-based, human
Procedure: The ICCs, which were pretreated for 5 d with PI3K inhibitors, NIC, HGF/SF, or control buffer, were subsequently harvested and suspended at a concentration of 2 3 10 5 cells/ml in buffer A (30 mM Hepes, pH 7.2, 110 mM NaCl, 10 mM KCl, 1 mM MgCl2, 10 mM glucose), and 1 mCi/ml [^32P]orthophosphate ([…]; DuPont/NEN) was added. The cells were incubated at 37° C. for 2 h and then washed 3× with buffer A. Depending on the type of experiment, the labeled islet cells were either directly lysed by addition of 3 ml chloroform/methanol (1:2, vol/vol), followed by 4 ml chloroform/2.4 M HCl (1: 1, vol/vol) (to measure basal levels of PIP3 ), or labeled cells were first stimulated with 25 ng/ml HGF/SF for the indicated times, and subsequently the reaction was stopped as above (to measure the inducible levels of PIP3 ). Phospholipids were extracted and analyzed by thinlayer chromatography, and the total cellular PIP3 was quantified, as we described previously in detail (Ptasznik et al. (1996) J. Biol. Chem. 271 :25204-25207).

human fetal ICCs [5] = experiment: Insulin content and insulin release of ICCs; type: cell-based
Source text: as §1, with “92:1459-1466). […] After incubation with various factors in culture, the ICCs were harvested, and measurements of insulin content, insulin release in response to glucose plus theophylline, and [^3H]thymidine incorporation into DNA were performed as described previously (Otonkoski et al. (1993) J. Clin. Invest. 92:1459-1466).” for “92:1459-1466).”

PI3K [6] = experiment: Direct effect on PI3K activity in vitro in p85 immunoprecipitates; type: biochemical, human; settings: various concentrations of NIC
Procedure: as §2

p85 protein = experiment: Western blotting of p85 protein; type: cell-based, human; settings: during NIC treatment
purified fetal islets = experiment: Endocrine function in purified fetal islets; type: cell-based, human
Procedure: Effects of PI3K inhibitors on endocrine function were tested not only in ICCs, but also in purified islets. Undifferentiated epithelial cells account for z75-80% of the total cell mass in ICCs. By contrast, purified fetal islets contain about 10 fold fewer undifferentiated epithelial cells (Beattie et al. (1996) Diabetes. 46:244-248). Purification of human fetal pancreatic islets was performed as recently described (Beattie et al. (1996) Diabetes. 46:244-248). Fetal islets, identified as homogeneous differentiated clusters of dithizonepositive cells, were incubated with factors as above.

human fetal ICCs [7] = experiment: Triple immunofluorescence, confocal microscopy and morphometric analysis; type: cell-based
Procedure: ICCs cultured for 5 d in either control medium or medium containing 10 μM Ly 294002 were paraffin embedded, and […] sections were stained for hormone immunoreactivity. To simultaneously identify cells producing insulin, glucagon, somatostatin, and pancreatic polypeptide (pp), we followed a modification of our previous protocol for multiple labeling (Otonkoski et al. (1996) J. Clin. Invest. 79:351-358). Briefly, sections were incubated for 1 h at room temperature with a mixture of primary antibodies: IgG fraction of a sheep anti-human insulin antiserum (The Binding Site, Birmingham, England) ([…]), mouse monoclonal anti-human glucagon (Sigma Chemical Co.) (1 mg/ml), rabbit anti-human somatostatin antiserum (Dako Corporation, Carpinteria, Calif.) (used at 1:100 dilution), and rabbit anti-human pp antiserum (Chemicon International, Inc., Temecula, Calif.) (used at 1:100 dilution). In separate sections, a mixture of normal sheep, rabbit, and mouse IgGs was used as control reference for specificity of primary antibodies. After washings in PBSDS (5 mM glycine, 0.2% donkey serum, 0.1% BSA), sections were incubated for 1 h at room temperature with a cocktail of F(ab′)2 fractions from secondary antibodies: lissamine-rhodamine-conjugated affinity-purified donkey anti-sheep IgGs ([…]); FITC-conjugated affinity-purified donkey anti-rabbit IgGs ([…]); and indodicarbocyanine-conjugated affinity-purified donkey anti-mouse IgGs ([…]). All F(ab′)2 were preadsorbed on appropriate multiple species to eliminate the possibility of crossreactivity in multiple labeling protocols (Jackson ImmunoResearch Labs, Inc., West Grove, Pa.). The sections were processed as previously described (Otonkoski et al. (1996) J. Clin. Invest. 79:351-358) and viewed on a laser scanning confocal microscope (model MRC1024; BioRad Laboratories, Hercules, Calif.).
Sections were prepared from control and Ly294002 treated ICCs from three independent experiments. […] All images collected (one image per section) were then analyzed for total surface area and insulin, glucagon, somatostatin, and positive cell surface area by using measurement tools in the software NIH Image 1.60 (National Institutes of Health, Bethesda, Md.). Data were analyzed in Stat View 4.01 (Abacus Concepts, Inc., Berkeley, Calif.) for calculation of mean, standard deviation, and parametric statistic (t test).

human fetal ICCs [8] = experiment: [3H]thymidine incorporation into DNA; type: cell-based; settings: ICCs 5 d with inhibitor, FIG. 4A
Procedure: After incubation with various factors in culture, the ICCs were harvested, and measurements of insulin content, insulin release in response to glucose plus theophylline, and [^3H]thymidine incorporation into DNA were performed as described previously (Otonkoski et al. (1993) J. Clin. Invest. 92:1459-1466).

[9] = test system: islet hormone gene expression in human fetal ICCs; experiment: Multiprobe ribonuclease protection assay of islet hormone mRNA; type: cell-based; settings: ICCs 5 d, 100 nM wortmannin or 10 μM Ly294002, FIG. 1
Source text: The use of human fetal tissue for these studies was reviewed and approved by the Institutional Review Board at our university. Human fetal pancreases at 18-24 gestational wk were obtained with appropriate permissions and patient consent through nonprofit organ procurement programs (Advanced Bioscience Resources, Oakland, Calif.; Anatomic Gift Foundation, Laurel, Md.). Experiments were started by the enzymatic digestion with collagenase P (Boehringer Mannheim Corp., Indianapolis, Ind.) of the human fetal pancreases followed by tissue culture for 5 d, which led to the formation in vitro of ICCs, as previously described in detail (Otonkoski et al. (1993) J. Clin. Invest. 92:1459-1466). […] Transcriptional analyses on total RNA ([…]) were performed using a multiprobe ribonuclease protection assay, as previously described (Otonkoski et al. (1993) J. Clin. Invest. 92:1459-1466). The housekeeping gene cyclophilin was used as an internal control, and yeast tRNA (10 μM) was included as a negative control. Probes used were of human origin and were described previously (Otonkoski et al. (1993) J. Clin. Invest. 92:1459-1466). Target RNAs were quantitated in autoradiographs by scanning densitometry (LKB UltroScan XL Laser) and integrated using Gel Scan XL software (Pharmacia LKB Biotechnology, Inc., Piscataway, N.J.). The probe-specific mRNA signals were normalized to the cyclophilin signal in each sample to account for differences in sample loading between lanes.

COC[C@H]1OC(=O)c2coc3c2[C@@]1(C)C1=C(C3=O)[C@@H]2CCC(=O)[C@@]2(C)C[C@H]1OC(C)=O [wortmannin]
control PI3K activity eliminated, p85 immunoprecipitates (PI3K [1]; FIG. 7): 90% | stability in culture medium [2]: much less stable | cytotoxicity and apoptosis ([3]; continuous treatment 5 d, 100 nM wortmannin, 10 μM Ly294002): does not cause notable cytotoxity nor induce apoptosis

hepatocyte growth factor/scatter factor [HGF/SF]
insulin and glucagon gene transcription and insulin protein biosynthesis [4]: marked down-regulation | increase in levels of PIP3 (PIP3; ICCs growing continuously (5 d) with 25 ng/ml HGF/SF, FIG. 6): threefold | cellular PI3K activity after acute stimulation (PI3K [1]; 25 ng/ml HGF/SF, ICCs starved 24 h, antiphosphotyrosine immunoprecipitates, FIG. 5): robustly activated

CO[C@@]12[C@H](COC(N)=O)C3=C(C(=O)C(C)=C(N)C3=O)N1C[C@@H]1N[C@@H]12 [mitomycin C]
basal PI3K activity in fetal islet cells significantly affected (PI3K [1]; mitomycin C-treated cells): neither | insulin protein expression (human fetal ICCs [5]; 2 mg/ml mitomycin C for 5 d, FIG. 4B): does not affect

NC(=O)c1cccnc1 [NIC, nicotinamide]
insulin and glucagon gene transcription and insulin protein biosynthesis [4]: an increase | basal level of PIP3 versus control cells (PIP3; 10 mM NIC, 5 d, FIG. 6): significantly lower | amount of PI3K activity in p85 immunoprecipitates, lower than untreated cells (PI3K [1]; 10 mM NIC, 5 d, FIG. 7): about fivefold | inducibility of cellular PI3K activity by growth factors and de novo formation of PIP3 (PI3K [1]; NIC-treated cells): significantly reduced | direct inhibitory effect on PI3K activity in vitro (PI3K [6]): not a direct inhibitor | actual level of p85 protein (p85 protein): no change | effect on endocrine function in purified fetal islets (purified fetal islets): no effect

O=c1cc(N2CCOCC2)oc2c(-c3ccccc3)cccc12 [Ly294002, 2-(4-Morpholinyl)-8-phenyl-4 H-1-benzopyran-4-one]
increase in the total percentage of endocrine-positive cells versus control ICCs (human fetal ICCs [7]; 10 μM Ly294002, 5 d): 4.4 fold | frequency of cells coexpressing multiple hormones (human fetal ICCs [7]; 10 μM Ly294002, 5 d, FIG. 3): increased | total endocrine cell surface area (human fetal ICCs [7]; 10 μM Ly294002, 5 d, FIG. 3): significantly increased | endocrine surface area for all hormones (insulin; somatostatin and pp; glucagon), percent of total ICC surface area (human fetal ICCs [7]; 10 μM Ly294002, 5 d, FIG. 3, n=3): significantly increased | number of hormone producing cells growing in ICCs (human fetal ICCs [7]; blockade of PI3K activity in culture): significantly increased | rise in PIP3 formation stimulated by growth factors (PIP3; 100 nM wortmannin or 10 μM Ly294002, intact labeled islet cells): almost completely inhibited | control PI3K activity eliminated, p85 immunoprecipitates (PI3K [1]; FIG. 7): 90% | insulin content per cellular DNA versus untreated control (human fetal ICCs [5]; ICCs cultured 5 d with inhibitor, FIG. 2A): significantly increased | insulin secretion per cellular DNA versus untreated control (human fetal ICCs [5]; ICCs cultured 5 d with inhibitor, glucose plus theophylline, FIG. 2B): significantly increased | stability in culture medium [2]: very stable | cytotoxicity (general statement) [3]: no significant cytotoxicity | [3H]thymidine incorporation into DNA (human fetal ICCs [8]): significantly decreased | transcriptional level of glucagon [9]: increased | transcriptional level of insulin [9]: increased | transcriptional level of somatostatin [9]: increased
